Results as given in patent US20250129083A1, “IMIDAZOTETRAZINE COMPOUNDS AND TREATMENT OF TMZ-RESISTANT CANCERS” (THE BOARD OF TRUSTEES OF THE UNIVERSITY OF ILLINOIS, priority 2022, published 2025).
Where two headings read alike, the source gives them in different places.

Tests used:
U87 GBM cell line = assay: Cell viability assay (Alamar Blue, 7 days), U87; format: cell-based, human
Description: (§1) Cell Culture and Reagents. All cell lines were grown in a 37° C., 5% CO2, humidified environment, in media containing 1% penicillin/streptomycin. Stable cell line generation of GL261 MGMT+ was purchased from Creative Biogene. Cell culture conditions are as follows: cell lines U87, T98G, and RKO were grown in EMEM with 10% FBS. D54, GL261, GL261 MGMT+, and U118MG cell lines were grown in DMEM with 10% FBS. HCT116 cells were grown in RMPI with 10% FBS. D341 Med cells were grown in EMEM with 20% FBS. Temozolomide (TMZ) was purchased from AK Scientific. TMZ analogues were synthesized as described below. Compounds were dissolved in DMSO (1% final concentration, Fisher Chemical) for cell culture studies.
(§2) Cell Viability Assays. Cells were harvested, seeded in a 96-well plate and allowed to adhere. After three hours, compound was added to each well in DMSO (1% final concentration). Cells were incubated for seven days (unless otherwise noted) before viability was assessed by the Alamar Blue assay. Raptinal (20 μM) was used as a dead control.
Plated 1500 c/w for GL261; 600 c/w for U87; 600 c/w for U118MG; 1500 c/w for GL261 MGMT+ Incubated ovn and added 1 μL of compound in DMSO the next day. Incubated over 7 days; added Alamar Blue to assess cell viability and used 10 μM Raptinal as dead control. Error is SEM, n=3.

T98G GBM cell line = assay: Cell viability assay (Alamar Blue, 7 days), T98G; format: cell-based, human
Description: as §1, §2

[1] = Hydrolytic stability studies; format: physicochemical; conditions: PBS; for Hydrolytic stability: percentage of prodrug remaining after 2 hours: pH 7.4, 37° C., HPLC; for half-life at 100 μM: 37° C.
Description: Hydrolytic Stability Studies. Compound (100 μM) was incubated at 37° C. in PBS at pH 7.4 (unless otherwise noted). At the indicated time point, an aliquot was collected and analyzed by HPLC. Compound peaks were integrated and compared to the integration at to calculate the percentage of prodrug remaining.

[2] = system: linearized pBR322 plasmid DNA; conditions: purified linearized DNA, 15 hours at 37° C.
Description: The DNA was subsequently denatured and the sample was eluted on a 1% agarose gel. Interstrand DNA cross-linkers like cisplatin prevent the full denaturation of double-stranded DNA, while DNA alkylating agents like MMS or TMZ cause DNA streaking due to shorter DNA fragments that are formed upon alkaline denaturation of abundantly alkylated DNA.
Procedure was adapted from Healy et al. (61) In brief, pBR322 plasmid DNA was linearized with EcoRI (New England BioLabs) in NEB EcoRI buffer (New England BioLabs) according to the manufacturer's instructions. The cut plasmid DNA was purified using a PCR cleanup kit (QIAquick PCR Purification Kit, Qiagen) and eluted into DNA buffer (10 mM Tris Cl, pH 8.5). The concentration of linearized DNA was quantified by measuring absorbance on a NanoDrop 2000 UV-Vis Spectrophotometer (Thermo Fisher). For each reaction, compound (in DMSO, 5% v/v) was added to DNA (150 ng) in DNA buffer (total volume 10 L) and incubated at 37° C. for the indicated time. Upon completion, 30 L DNA denaturation buffer (60 mg/mL sucrose, 10 mg/mL NaOH, and 0.4 mg/mL bromophenol blue in water) was added to each sample (the same buffer without NaOH was added to non-denatured controls). […] Gels were imaged using a Gel Dox XR+ system (Bio-Rad).

[3] = Hepatic metabolism: stability in mouse liver microsomes; format: in vitro ADME; conditions: for Stability (2 h, with MLM): percentage remaining relative to t0, mouse liver microsomes, SEM, n ≥ 2; for Stability (2 h, no MLM): percentage remaining, microsomes replaced with PBS
in vivo = conditions: CD-1 IGS, mouse, brain and serum, iv, 25 mg/kg
Description: Biodistribution and Toxicity Studies. […] Brain tissue and blood were collected from each mouse and immediately acidified to prevent prodrug degradation. The concentration of each compound in the serum (FIG. 4A) and brain (FIG. 4B) were quantified by LC-MS/MS.
CD-1 IGS mice were administered compound in 5% DMSO, 10% Tween-20, and 85% SPE-PCD in sterile water (30% w/v) at 25 mg/kg via lateral tail vein injection. Fifteen minutes post injection, mice were sacrificed and blood was collected by lacerating the right auricle with iris scissors. An 18 gauge angiocatheter was inserted through the left ventricle, and all residual circulatory volume was removed by perfusing 0.9% saline solution via an analog peristaltic pump. Blood samples were immediately centrifuged at 13,000 rcf for five minutes and the supernatant collected and acidified with 8.5% aqueous H3PO4. Brains were harvested from the cranial vault, acidified with 0.3% aqueous H3PO4 and flash frozen. Homogenized brain samples were centrifuged twice at 13,000 rcf for ten minutes and supernatant and tissue debris were separated. The resultant supernatant was analyzed, along with plasma, by LC-MS/MS to determine compound concentrations.

[4] = system: expanded panel of GBM cell lines with or without MGMT expression; assay: Cell viability in expanded panel of GBM cell lines; format: cell-based; conditions: 168 h; all cell lines, with or without MGMT; 7 days; read-out: IC50 values across expanded panel of GBM cell lines
Description: FIG. 1A-C. Selection and evaluation of MGMT-independent imidazotetrazines. (A) IC50 values (M, 7 days) of TMZ and compound 10 in an expanded panel of GBM cell lines. Cell viability was assessed via the Alamar Blue assay, n≥3, error is SEM. (B) Hydrolytic stability of TMZ at pH 7, 7.4, and 8. Percentage of prodrug remaining was quantified by HPLC, n≥2. (C) Hydrolytic stability of compound 10 at pH 7, 7.4, and 8. Percentage of prodrug remaining was quantified by HPLC, n≥2.
FIG. 2A-F. (A) 7 day IC50 values (M) of compound 10 and CPZ in an expanded panel of GBM cell lines. Cell viability was assessed via the Alamar Blue assay, n≥3, error is SEM. (B-E) 7 day dose-response curves of TMZ and CPZ in cell lines with variable MGMT and MMR status. Error is SEM, n≥3. (F) Killing kinetics of CPZ compared to TMZ in the U87 cell line. Cells were treated with compound once and viability was assessed every 24 hours via Alamar Blue assay. Error is SEM, n≥2.
as §2

[5] = Homo sapiens, 168 h, MGMT (−), Alamar Blue, error SEM, n ≥ 3, read-out: Seven-day IC50, U87
[6] = Homo sapiens, T98G, 168 h, MGMT (+), Alamar Blue, error SEM, n ≥ 3, read-out: Seven-day IC50, T98G
[7] = Homo sapiens, 168 h, MGMT (−) MMR (+), 600 c/w, SEM, n=3, read-out: Activity, U87
[8] = Homo sapiens, T98G, 168 h, MGMT (+) MMR (+), read-out: Activity, T98G
[9] = MGMT (+), Alamar Blue, error SEM, n ≥ 3, read-out: Seven-day IC50, T98G

Row | Compound | IC50 (U87 GBM cell line; [5]) | IC50 (T98G GBM cell line; [6]) | other results
1 | CC(C)(C)Cn1nnc2c(C(N)=O)ncn2c1=O [Compound 6, 3-neopentyl-4-oxo-3,4-dihydroimidazo[5,1-d][1,2,3,5]tetrazine-8-carboxamide] | > 1000 µM | > 1000 µM | 
2 | CC(C)n1nnc2c(C(N)=O)ncn2c1=O [Compound 4, 3-isopropyl-4-oxo-3,4-dihydroimidazo[5,1-d][1,2,3,5]tetrazine-8-carboxamide] | > 1000 µM | > 1000 µM | 
3 | C#CCn1nnc2c(C(=O)N(C)C)ncn2c1=O [Compound 17, N,N-dimethyl-4-oxo-3-(prop-2-yn-1-yl)-3,4-dihydroimidazo[5,1-d][1,2,3,5]tetrazine-8-carboxamide] |  |  | Hydrolytic stability: percentage of prodrug remaining after 2 hours [1]: 27%; IC50 (U87 GBM cell line; [7]): 20 ± 5 µM; IC50 (T98G GBM cell line; [8]): 40 ± 5 µM
4 | CCCn1nnc2c(C(N)=O)ncn2c1=O [Compound 3, 4-oxo-3-propyl-3,4-dihydroimidazo[5,1-d][1,2,3,5]tetrazine-8-carboxamide] | > 1000 µM | > 1000 µM | DNA alkylation (streaking on gel) [2]: No evidence of DNA alkylation
5 | COc1ccc(-n2nnc3c(C(N)=O)ncn3c2=O)cc1 [Compound 7, 3-(4-methoxyphenyl)-4-oxo-3,4-dihydroimidazo[5,1-d][1,2,3,S]tetrazine-8-carboxamide] |  | < 100 µM | IC50 (T98G GBM cell line; [9]): 60 ± 10 µM
6 | CN(C)C(=O)c1ncn2c(=O)n(C)nnc12 [N,N-DiMe-TMZ, reference compound] |  |  | Stability (2 h, with MLM) [3]: 81 ± 2%; Stability (2 h, no MLM) [3]: 92 ± 3%
7 | CCn1nnc2c(C(N)=O)ncn2c1=O [Compound 2, 3-ethyl-4-oxo-3,4-dihydroimidazo[5,1-d][1,2,3,5]tetrazine-8-carboxamide] | 470 µM | > 1000 µM | 
8 | C=CCn1nnc2c(C(N)=O)ncn2c1=O [Compound 9, 3-allyl-4-oxo-3,4-dihydroimidazo[5,1-d][1,2,3,5]tetrazine-8-carboxamide] | 220 ± 60 µM | 320 ± 10 µM | DNA alkylation (streaking on gel) [2]: No evidence of DNA alkylation
9 | NC(=O)c1ncn2c(=O)n(COc3ccccc3)nnc12 [Compound 11, 4-oxo-3-(phenoxymethyl)-3,4-dihydroimidazo[5,1-d][1,2,3,5]tetrazine-8-carboxamide] | < 40 µM | < 40 µM | IC50 (U87 GBM cell line; MGMT (−), Alamar Blue, error SEM, n ≥ 3, read-out: Seven-day IC50, U87): 21 ± 3 µM; IC50 (T98G GBM cell line; [9]): 35 ± 1 µM
10 | CC#CCn1nnc2c(C(N)=O)ncn2c1=O [Compound 19, 3-(but-2-yn-1-yl)-4-oxo-3,4-dihydroimidazo[5,1-d][1,2,3,5]tetrazine-8-carboxamide] | 37 µM | 110 µM | DNA alkylation (streaking on gel) [2]: Trace DNA alkylation; DNA interstrand cross-linking [2]: definitively absent
11 | C#CCn1nnc2c(C(N)=O)ncn2c1=O [Compound 10, 4-oxo-3-(prop-2-yn-1-yl)-3,4-dihydroimidazo[5,1-d][1,2,3,5]tetrazine-8-carboxamide] | 29 µM | 77 µM | Kp at 15 min (in vivo): 0.06 ± 0.01; half-life at 100 μM ([1]; pH 7, calculated from hydrolytic stability data, read-out: Half-life, pH 7): 97 ± 5 min; Hydrolytic stability: percentage of prodrug remaining after 2 hours [1]: 8%; half-life at 100 μM ([1]; pH 7.4, calculated from hydrolytic stability data, read-out: Half-life, pH 7.4): ~30 min; half-life at 100 μM ([1]; pH 8, calculated from hydrolytic stability data, read-out: Half-life, pH 8): 15 ± 1 min; IC50 [4]: < 100 µM
12 | C=CC=O [acrolein, reference compound] |  |  | DNA alkylation (streaking on gel) [2]: no evidence of alkylation; DNA interstrand cross-linking [2]: interstrand cross-linking
13 | NC(=O)c1ncn2c(=O)[nH]nnc12 [Compound 1, 4-oxo-3,4-dihydroimidazo[5,1-d][1,2,3,5]tetrazine-8-carboxamide] | > 1000 µM | > 1000 µM | 
14 | CC(C)(C)n1nnc2c(C(N)=O)ncn2c1=O [Compound 5, 3-(tert-butyl)-4-oxo-3,4-dihydroimidazo[5,1-d][1,2,3,5]tetrazine-8-carboxamide] | 570 ± 30 µM | > 1000 µM | 
15 | C#CCn1nnc2c(C(=O)NC)ncn2c1=O [Compound 16, N-methyl-4-oxo-3-(prop-2-yn-1-yl)-3,4-dihydroimidazo[5,1-d][1,2,3,5]tetrazine-8-carboxamide] |  |  | Hydrolytic stability: percentage of prodrug remaining after 2 hours [1]: 18%; IC50 (U87 GBM cell line; [7]): 40 ± 20 µM; IC50 (T98G GBM cell line; [8]): 87 ± 7 µM
16 | NC(=O)c1ncn2c(=O)n(CNC(=O)c3ccccc3)nnc12 [Compound 12, 3-(benzamidomethyl)-4-oxo-3,4-dihydroimidazo[5,1-d][1,2,3,5]tetrazine-8-carboxamide] | 240 ± 20 µM | 580 ± 100 µM | 
17 | CC#CCn1nnc2c(C(N)=O)ncn2c1=O [But] |  |  | Stability (2 h, with MLM) [3]: 89 ± 3%; Stability (2 h, no MLM) [3]: 85 ± 1%
18 | NC(=O)c1ncn2c(=O)n(CCCl)nnc12 [MTZ, 3-(2-chloroethyl)-4-oxo-3,4-dihydroimidazo[5,1-d][1,2,3,5]tetrazine-8-carboxamide, reference compound] | 30 µM | 85 ± 9 µM | 
